Source: patent US8399462B2, “JNK modulators” (Roche Palo Alto LLC, priority 2006, dated 2013)
Several values for one entry are separate records, joined by “and”; a condition that tells them apart may be missing. Equal entries are not always repeated.

In the case of CS(=O)(=O)CCCOc1cccc2c1ccn2-c1ccnc(N[C@H]2CC[C@H](C(=O)N3CCCC(O)C3)CC2)n1 (stereo partly shown) [Compound 291, (3-hydroxy-piperidin-1-yl)-(4-{4-[4-(3-methane-sulfonyl-propoxy)-indol-1-yl]-pyrimidin-2-ylamino}-cyclohexyl)-methanone], the melting point is reported as 167.3 to 170.5 °C.
CC1(O)CCN(C(=O)[C@H]2CC[C@H](Nc3nccc(-n4ccc5c(OCCCS(C)(=O)=O)cccc54)n3)CC2)CC1 [Compound 292, (4-hydroxy-4-methyl-piperidin-1-yl)-(4-{4-[4-(3-methanesulfonyl-propoxy)-indol-1-yl]-pyrimidin-2-ylamino}-cyclohexyl)-methanone] gave a melting point of 132.6 to 137.7 °C.
For CNC1CCN(C(=O)[C@H]2CC[C@H](Nc3nccc(-n4ccc5c(OCCCS(C)(=O)=O)cccc54)n3)CC2)CC1 [Compound 293, (4-{4-[4-(3-methane-sulfonyl-propoxy)-indol-1-yl]-pyrimidin-2-ylamino}-cyclohexyl)-(4-methylamino-piperidin-1-yl)-methanone], the melting point was 187.5 to 189.1 °C.
CS(=O)(=O)CCCOc1cccc2c1ccn2-c1ccnc(N[C@H]2CC[C@H](NS(=O)(=O)c3cccs3)CC2)n1 [Compound 294, Thiophene-2-sulfonic-acid (4-{4-[4-(3-methane-sulfonyl-propoxy)-indol-1-yl]-pyrimidin-2-ylamino}-cyclohexyl)-amide] showed a melting point of 226 to 227 °C.
With CN(C)C1CCN(C(=O)[C@H]2CC[C@H](Nc3nccc(-n4cc(C(N)=O)c5ccccc54)n3)CC2)CC1 [Compound 295, 1-{2-[4-(4-dimethylamino-piperidine-1-carbonyl)-cyclohexylamino]-pyrimidin-4-yl}-1H-indole-3-carboxylic acid amide] the melting point was 219 to 221 °C.
CS(=O)(=O)CCCOc1cccc2c1ccn2-c1ccnc(N[C@H]2CC[C@H](C(=O)N3CCC(S(C)(=O)=O)CC3)CC2)n1 [Compound 297, (4-methanesulfonyl-piperidin-1-yl)-(4-{4-[4-(3-methanesulfonyl-propoxy)-indol-1-yl]-pyrimidin-2-ylamino}-cyclohexyl)-methanone] showed a melting point of 215 to 219 °C.
For CSC[C@H]1CC[C@H](Nc2nccc(-n3ccc4c(OCCCS(C)(=O)=O)cccc43)n2)CC1 [Compound 298, {4-[4-(3-methane-sulfonyl-propoxy)-indol-1-yl]-pyrimidin-2-yl}-(4-methylsulfanylmethyl-cyclohexyl)-amine], the melting point was 158.7 to 159.6 °C.
NS(=O)(=O)CCCOc1cccc2c1ccn2-c1ccnc(N[C@H]2CC[C@H](C(=O)N3CCC3)CC2)n1 [Compound 299, 3-(1-{2-[4-(azetidin-1-carbonyl)-cyclohexyl-amino]-pyrimidin-4-yl}-1H-indol-4-yloxy)-propane-1-sulfonic acid amide] showed a melting point of 218.4 to 220.9 °C.
For CN(C)C1CCN(C(=O)[C@H]2CC[C@H](Nc3nccc(-n4ccc5c(OCCCS(N)(=O)=O)cccc54)n3)CC2)CC1 [Compound 300, 3-(1-{2-[4-(4-dimethyl-amino-piperidine-1-carbonyl)-cyclohexyl-amino]-pyrimidin-4-yl}-1H-indol-4-yloxy)-propane-1-sulfonic acid amide], the melting point was 135.7 to 142.7 °C.
Work on CS(=O)(=O)CCCOc1cccc2c1ccn2-c1ccnc(N[C@H]2CC[C@H](C(=O)N3CCC(NC4CC4)CC3)CC2)n1 [Compound 302, (4-cyclopropylamino-piperidin-1-yl)-(4-{4-[4-(3-methanesulfonyl-propoxy)-indol-1-yl]-pyrimidin-2-ylamino}-cyclohexyl)-methanone] yielded a melting point of 196.3 to 197.9 °C.
Compound CCNC(=O)[C@H]1CC[C@H](Nc2nccc(-n3ccc4c(OCCCS(=O)(=O)NC)cccc43)n2)CC1 [Compound 303, 4-{4-[4-(3-methane-sulfamoyl-propoxy)-indol-1-yl]-pyrimidin-2-ylamino}-cyclohexane-carboxylic acid ethyl-amide] has a melting point of 201.7 to 203.2 °C.
In the case of CS(=O)(=O)CCCOc1cccc2c1ccn2-c1ccnc(N[C@H]2CC[C@H](C(=O)N3CCC(CN)CC3)CC2)n1 [Compound 304, (4-aminomethyl-piperidin-1-yl)-(4-{4-[4-(3-methanesulfonyl-propoxy)-indol-1-yl]-pyrimidin-2-ylamino}-cyclohexyl)-methanone], the melting point is reported as 124.1 to 126.1 °C and 124 to 126 °C.
Compound CS(=O)(=O)CCCOc1cccc2c1ccn2-c1ccnc(N[C@H]2CC[C@H](N3CCCS3(=O)=O)CC2)n1 [Compound 305, [4-(1,1-dioxo-isothiazolidin-2-yl)-cyclohexyl]-{4-[4-(3-methane-sulfonyl-propoxy)-indol-1-yl]-pyrimidin-2-yl}-amine] has a melting point of 164.1 to 172.5 °C.
CS(=O)(=O)CCCOc1cccc2c(-c3ccnc(N[C@H]4CC[C@H](NS(C)(=O)=O)CC4)n3)noc12 [Compound 306, N-(4-{4-[7-(3-methane-sulfonyl-propoxy)-benzo[d]isoxazol-3-yl]-pyrimidin-2-ylamino}-cyclohexyl)-methane-sulfonamide] gave a melting point of 225 to 226 °C.
In the case of CS(=O)(=O)CCCOc1cccc2c(-c3ccnc(N[C@H]4CC[C@H](C(=O)N5CCC(O)CC5)CC4)n3)noc12 [Compound 307, (4-hydroxy-piperidin-1-yl)-(4-{4-[7-(3-methane-sulfonyl-propoxy)-benzo[d]isoxazol-3-yl]-pyrimidin-2-ylamino}-cyclohexyl)-methanone], the melting point is reported as 186 to 187 °C.
With CS(=O)(=O)CCCOc1cccc2c(-c3ccnc(N[C@H]4CC[C@H](C(=O)N5CC[C@@H](O)C5)CC4)n3)noc12 [Compound 309, (3-hydroxy-pyrrolidin-1-yl)-(4-{4-[7-(3-methane-sulfonyl-propoxy)-benzo[d]isoxazol-3-yl]-pyrimidin-2-ylamino}-cyclohexyl)-methanone] the melting point was 224 to 225 °C.
CN([C@H]1CC[C@H](Nc2nccc(-c3noc4c(OCCCS(C)(=O)=O)cccc34)n2)CC1)S(C)(=O)=O [Compound 310, N-(4-{4-[7-(3-methane-sulfonyl-propoxy)-benzo[d]isoxazol-3-yl]-pyrimidin-2-ylamino}-cyclohexyl)-N-methyl-methanesulfonamide] gave a melting point of 213.5 to 214.2 °C.
With CS(=O)(=O)N[C@H]1CC[C@H](Nc2nccc(-n3ccc4c(N5CCC(O)C5)cccc43)n2)CC1 (stereo partly shown) [Compound 312, N-(4-{4-[4-(3-hydroxy-pyrrolidin-1-yl)-indol-1-yl]-pyrimidin-2-yl-amino}-cyclohexyl)-methanesulfonamide] the melting point was 190.1 to 200.5 °C.
For CS(=O)(=O)N[C@H]1CC[C@H](Nc2nccc(-n3ccc4c(OCC(O)CC(F)(F)F)cccc43)n2)CC1 (stereo partly shown) [Compound 314, N-(4-{4-[4-(4,4,4-trifluoro-2-hydroxy-butoxy)-indol-1-yl]-pyrimidin-2-ylamino}-cyclohexyl)-methanesulfonamide], the melting point was 220.7 to 221.5 °C.
In the case of CS(=O)(=O)CCCOc1cccc2c1ccn2-c1ccnc(N[C@H]2CC[C@H](CN3CC[C@@H](O)C3)CC2)n1 [Compound 317, 1-(4-{4-[4-(3-methanesulfonyl-propoxy)-indol-1-yl]-pyirmidin-2-ylamino}-cyclohexylmethyl)-pyrrolidin-3-ol], the melting point is reported as 139.6 to 150.3 °C.
CCOC(=O)[C@H]1CC[C@H](Nc2nccc(-n3ccc4c(OCCCS(N)(=O)=O)cccc43)n2)CC1 [Compound 318, 4-{4-[4-(3-sulfamoyl-propoxy)-indol-1-yl]-pyrimidin-2-ylamino}-cyclohexanecarboxylic acid ethyl ester] gave a melting point of 145 to 148 °C.
Compound CC(=O)N1CCN(c2cccc3c2ccn3-c2ccnc(N[C@H]3CC[C@H](N(CCO)S(C)(=O)=O)CC3)n2)CC1 [Compound 320, N-(4-{4-[4-(4-acetyl-piperazin-1-yl)-indol-1-yl]-pyrimidin-2-ylamino}-cyclohexyl)-N-(2-hydroxy-ethyl)-methanesulfonamide] has a melting point of 244.5 to 248.8 °C.
For CN(C1CCC(Nc2nccc(-n3cc(S(N)(=O)=O)c4ccccc43)n2)CC1)S(C)(=O)=O (stereo not shown) [Compound 321, 1-{2-[4-(methanesulfonyl-methyl-amino)-cyclohexylamino]-pyrimdin-4-yl}-1H-indole-3-sulfonic acid amide], the melting point was 246.6 to 248.2 °C.
Work on O[C@H]1CC[C@H](Nc2nccc(-c3n[nH]c4c(C(F)(F)F)cccc34)n2)CC1 [Example 3, trans-4-[4-(7-Trifluoromethyl-1H-indazol-3-yl)-pyrimidin-2-yl-amino]-cyclohexanol] yielded a melting point of 265.5 to 270 °C.
For C[C@H]1CC[C@H](Nc2nccc(-n3ncc4c([N+](=O)[O-])cccc43)n2)CC1 [Example 4, trans-(4-Methyl-cyclohexyl)-[4-(4-nitro-indazol-1-yl)-pyrimidin-2-yl]-amine], the melting point was 253.9 to 254.8 °C.
With CC(O)CCNC(=O)[C@H]1CC[C@H](Nc2nccc(-n3ncc4ccccc43)n2)CC1 (stereo partly drawn) [Example 5, trans-4-(4-Indazol-1-ylpyrimidin-2-ylamino)-cyclohexane-carboxylic acid (3-hydroxy-butyl)-amide] the melting point was 248.5 to 252.5 °C.
For O=C([C@H]1CC[C@H](Nc2nccc(-n3ncc4ccccc43)n2)CC1)N1CCOCC1 [Example 6, trans-[4-(4-Indazol-1-yl-pyrimidin-2-ylamino)-cyclohexyl]-morpholin-4-yl-methanone], the melting point was 191 to 192 °C.
With O=C(O)c1cccc2c1ccn2-c1ccnc(N[C@H]2CC[C@H](O)CC2)n1 [Example 7, trans-1-[2-(4-Hydroxy-cyclohexylamino)-pyrimidin-4-yl]-1H-indole-4-carboxylic acid] the melting point was 259 to 261 °C.
Compound Nc1cccc2c1ccn2-c1ccnc(N[C@H]2CC[C@H](O)CC2)n1 [Example 8, trans-4-[4-(4-Aminoindol-1-yl)-pyrimidin-2-ylamino]-cyclohexanol] has a melting point of 218.9 to 220.1 °C.
Oc1ccc2c(ccn2-c2ccnc(N[C@H]3CC[C@H](O)CC3)n2)c1 [Example 9, trans-1-[2-(4-Hydroxycyclohexylamino)-pyrimidin-4-yl]-1H-indol-5-ol] showed a melting point of 246.5 to 248 °C.
Compound OCc1cccc2c1ccn2-c1ccnc(N[C@H]2CC[C@H](O)CC2)n1 [Example 10, trans-4-[4-(4-Hydroxymethylindol-1-yl)-pyrimidin-2-ylamino]-cyclohexanol] has a melting point of 212 to 213.3 °C.
